Test results published in patent US4018801A, “Substituted oxirane compounds” (The Dow Chemical Company, priority 1975, dated 1977).

Columns and labels:
Format in all cases: in vivo
[1] = system: Water-Grass; assay: Comparative pre-emergence herbicide test
Excerpt: (§1) Four parts by weight of the compound, 0.08 part of sorbitan trioleate (Span 85), and 0.02 part of a sorbitan monooleate polyoxyethylene derivative (Tween 80) are dipersed in 40 milliliters of acetone to produce a concentrate composition in the form of a water-dispersible liquid containing the predetermined oxirane compound as the sole active agent.
(§2) A portion of each of these concentrate compositions were separately dispersed in portions of water to provide aqueous compositions, containing 0.44 pound of the oxirane compound per 100 gallons of ultimate aqueous mixture.
(§3) The aqueous compositions were then employed for the treatment of seed beds of good agricultural soil which had been prepared and seeded with the seeds of various grass species and broadleaf plants. The grass species included white winter wheat, cultured rice, pigweeds, crabgrass, cheat grass, wild oats, Johnson grass, barnyard grass and yellow foxtail; and the broadleaf plants included corn. In the treating operations, a predetermined quantity of each of the compositions was applied to separate seedbeds as a soil drench at a rate of about 0.43 acre inch of aqueous composition per acre. The quantities were controlled to supply a substantial uniform dosage in a seedbed equivalent to 1.0, 2.0 and 5.0 pounds of the oxirane compound per acre. These dosages correspond, respectively, to a concentration, within the soil depth penetrated of about 1.6, 3.2 and 8.0 parts by weight of the oxirane compound per million parts by weight of soil. Other seedbeds were similarly seeded with the named plant species but were left untreated to serve as checks.
(§4) After about 2 weeks the seedbeds were examined to ascertain what control of the growth of seeds had been obtained.
(§5) Separate aqueous compositions containing the 2-(m-chlorophenyl)-2-(2,2,2-trichloroethyl)oxirane (Cmpd. A) and 2-(m-bromophenyl)-2-(2,2,2-trichloroethyl)oxirane (Cmpd. C) compounds of the present invention were prepared as in Example 32 for comparative per-emergence herbicide tests against noxious grass species with the known 2 -(p-chlorophenyl)-2-(2,2,2-trichloroethyl)oxirane (Cmpd. B) compound and 2-(p-bromophenyl)-2-(2,2,2-trichloroethyl)oxirane (Cmpd. D). The pre-emergence tests were conducted in Example 32 and the results of such tests are set forth below in Table III.

[2] = system: Crabgrass; assay: Pre-emergent control of seed germination, soil drench; settings: for % Control: pre-emergence, Crab Grass; for pre-emergence control: crabgrass
Excerpt: as §1, §2, §3, §4
(§6) were prepared as in Example 32 and similarly employed for the pre-emergencetreatment of various plant species.
as §5
(§7) An aqueous composition containing 2-(α,α,α -trifluoro-m-tolyl)-2-(2,2,2-trichloroethyl)oxirane was prepared as described in Example 32. The composition was then employed according to the procedures of Example 32 except that lower concentrations of the oxirane compound were employed in the composition.
(§8) The percent control of the various plant species at the employed dosage rate of the 2-(α,α,α-trifluoro-m-tolyl)- 2-(2,2,2-trichloroethyl) supplied by the composition is set forth in the following Table IV.

[3] = system: Johnson Grass; assay: as above; settings: for % Control: pre-emergence, Johnson Grass; for pre-emergence control: Johnson grass
Excerpt: as §1, §2, §3, §4, §6, §5, §7, §8

[4] = system: Pigweeds; assay: as above; settings: pigweeds, 2.0 pounds per acre
Excerpt: as §1, §2, §3, §4, §6, §7, §8

[5] = system: Wild Oats; assay: as above; settings: wild oats
Excerpt: as §1, §2, §3, §4, §6, §7, §8

[6] = system: Barnyard Grass; assay: as above; settings: barnyard grass
Excerpt: as §1, §2, §3, §4, §6, §7, §8

[7] = system: Yellow Foxtail; assay: as above; settings: yellow foxtail
Excerpt: as §1, §2, §3, §4, §6, §7, §8

[8] = 0.25 to 0.5 pounds per acre, respectively

| SMILES | % Control ([1]; 1/8 Lb/Acre) | % Control ([1]; 1/16 Lb/Acre) | % Control ([2]; 1/8 Lb/Acre) | % Control ([2]; 1/16 Lb/Acre) | % Control ([3]; 1/8 Lb/Acre) | % Control ([3]; 1/16 Lb/Acre) | pre-emergence control ([2]; 2.0 pounds per acre) | pre-emergence control ([3]; 2.0 pounds per acre) | pre-emergence control [4] | pre-emergence control ([5]; 2.0 pounds per acre) | pre-emergence control ([6]; 2.0 pounds per acre) | also measured |
| --- | --- | --- | --- | --- | --- | --- | --- | --- | --- | --- | --- | --- |
| Clc1ccc(C2(CC(Cl)(Cl)Cl)CO2)cc1 (stereo not shown) [Cmpd. B, 2-(p-chlorophenyl)-2-(2,2,2-trichloroethyl)oxirane, reference compound] | 90% | 60% | 20% | 0% | 30% | 0% |  |  |  |  |  |  |
| ClC(Cl)(Cl)CC1(c2ccc(Br)cc2)CO1 (stereo not shown) [Cmpd. D, 2-(p-bromophenyl)-2-(2,2,2-trichloroethyl)oxirane, reference compound] | 60% | 30% | 0% | 0% | 25% | 0% |  |  |  |  |  |  |
| Clc1ccc(C2(CC(Cl)(Cl)Cl)CO2)cc1Cl (stereo not shown) [Example 5, 2-(3,4-dichlorophenyl)-2-(2,2,2-trichloroethyl)oxirane] |  |  |  |  |  |  | substantially complete control | substantially complete control | substantially complete control | substantially complete control |  |  |
| Clc1cccc(C2(CC(Cl)(Cl)Cl)CO2)c1 (stereo not shown) [Example 7, 2-(m-chlorophenyl)-2-(2,2,2-trichloroethyl)oxirane] | 90% | 85% | 100% | 100% | 100% | 100% |  |  |  |  |  | pre-emergence control [2, 8]: Substantially complete pre-emergence control; pre-emergence control [3, 8]: Substantially complete pre-emergence control; pre-emergence control [6, 8]: Substantially complete pre-emergence control; pre-emergence control [7, 8]: Substantially complete pre-emergence control; pre-emergence control [5, 8]: Substantially complete pre-emergence control |
| Cc1cccc(C2(CC(Cl)(Cl)Cl)CO2)c1 (stereo not shown) [Example 9, 2-(m-tolyl)-2-(2,2,2-trichloroethyl)oxirane] |  |  |  |  |  |  | substantially complete control | substantially complete control | substantially complete control | substantially complete control | substantially complete control | pre-emergence control ([7]; 2.0 pounds per acre): substantially complete control |
| COc1cccc(C2(CC(Cl)(Cl)Cl)CO2)c1 (stereo not shown) [Example 12, 2-(m-methoxyphenyl)-2-(2,2,2-trichloroethyl)oxirane] |  |  |  |  |  |  | substantially complete pre-emergence control | substantially complete pre-emergence control | substantially complete pre-emergence control |  | substantially complete pre-emergence control |  |
| CCOc1cccc(C2(CC(Cl)(Cl)Cl)CO2)c1 (stereo not shown) [Example 14, 2-(m-ethoxyphenyl)-2-(2,2,2-trichloroethyl)oxirane] |  |  |  |  |  |  | substantially complete control | substantially complete control |  | substantially complete control | substantially complete control |  |
| Fc1cccc(C2(CC(Cl)(Cl)Cl)CO2)c1 (stereo not shown) [Example 19, 2-(m-fluorophenyl)-2-(2,2,2-trichloroethyl)oxirane] |  |  |  |  |  |  |  |  |  |  |  | pre-emergence control [2, 8]: Substantially complete pre-emergence control; pre-emergence control [3, 8]: Substantially complete pre-emergence control; pre-emergence control [6, 8]: Substantially complete pre-emergence control; pre-emergence control [7, 8]: Substantially complete pre-emergence control; pre-emergence control [5, 8]: Substantially complete pre-emergence control |
